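Interpolation was linear, between the two tested concentrations surrounding the appropriate level; five concentrations were tested over 48 hours in 96-well plates. Definition used: TGI = concentration required for complete inhibition of growth.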
Key:
Assay in all cases: NCI tumour cell line growth inhibition, 48 h
HOP-92 NSCLC = system: HOP-92 NSCLC
HOP-62 NSCLC = system: HOP-62 NSCLC
M14 melanoma = system: M14 melanoma
SNB-75 CNS = system: SNB-75 CNS
K-562 leukemia = system: K-562 leukemia
COLO 205 colon = system: COLO 205 colon
CCRF-CEM leukemia = system: CCRF-CEM leukemia
UACC-257 melanoma = system: UACC-257 melanoma
MALME-3M melanoma = system: MALME-3M melanoma
IGROV1 ovarian = system: IGROV1 ovarian
EKVX NSCLC = system: EKVX NSCLC
SK-OV-3 ovarian = system: SK-OV-3 ovarian
KM12 colon = system: KM12 colon
NCI-H460 lung = system: NCI-H460 lung
SK-MEL-2 melanoma = system: SK-MEL-2 melanoma
ACHN renal = system: ACHN renal
T-47D breast = system: T-47D breast
NCI-H522 lung = system: NCI-H522 lung
SK-MEL-5 melanoma = system: SK-MEL-5 melanoma
A549 NSCLC = system: A549 NSCLC
BT-549 breast = system: BT-549 breast
A498 renal = system: A498 renal
CAKI-1 renal = system: CAKI-1 renal
NCI-H226 lung = system: NCI-H226 lung
SF-539 CNS = system: SF-539 CNS
RXF 393 renal = system: RXF 393 renal
MOLT-4 leukemia = system: MOLT-4 leukemia
SF-268 CNS = system: SF-268 CNS
SF-295 CNS = system: SF-295 CNS
PC-3 prostate = system: PC-3 prostate
OVCAR-8 ovarian = system: OVCAR-8 ovarian
SK-MEL-28 melanoma = system: SK-MEL-28 melanoma
OVCAR-4 ovarian = system: OVCAR-4 ovarian
786-0 renal = system: 786-0 renal
HS 578T breast = system: HS 578T breast
HCC-2998 colon = system: HCC-2998 colon
NCI/ADR-RES ovarian = system: NCI/ADR-RES ovarian
MDA-MB-435 = system: MDA-MB-435
UO-31 renal = system: UO-31 renal
MCF7 breast = system: MCF7 breast
HCT-15 colon = system: HCT-15 colon
OVCAR-5 ovarian = system: OVCAR-5 ovarian
UACC-62 melanoma = system: UACC-62 melanoma
SN12C renal = system: SN12C renal
SW-620 colon = system: SW-620 colon
DU-145 prostate = system: DU-145 prostate
U251 CNS = system: U251 CNS
LOX IMVI melanoma = system: LOX IMVI melanoma
NCI-H23 lung = system: NCI-H23 lung
MDA-MB-231 breast = system: MDA-MB-231 breast
HT29 colon = system: HT29 colon
SR leukemia = system: SR leukemia
MDA-N = system: MDA-N
SNB-19 CNS = system: SNB-19 CNS
HCT-116 colon = system: HCT-116 colon
TK-10 renal = system: TK-10 renal
RPMI-8226 leukemia = system: RPMI-8226 leukemia
HL-60(TB) leukemia = system: HL-60(TB) leukemia
M19-MEL melanoma = system: M19-MEL melanoma
SNB-78 CNS = system: SNB-78 CNS
DMS 273 small cell lung = system: DMS 273 small cell lung
OVCAR-3 ovarian = system: OVCAR-3 ovarian
HOP-18 NSCLC = system: HOP-18 NSCLC
XF 498 CNS = system: XF 498 CNS
LXFL 529 NSCLC = system: LXFL 529 NSCLC
DLD-1 colon = system: DLD-1 colon
DMS 114 small cell lung = system: DMS 114 small cell lung
KM20L2 colon = system: KM20L2 colon

COCn1c(C)c(C)c2c(=O)oc(C)nc21
TGI (HOP-92 NSCLC): > 100 µM | TGI (HOP-62 NSCLC): > 100 µM | TGI (M14 melanoma): > 100 µM | TGI (SNB-75 CNS): > 100 µM | TGI (K-562 leukemia): > 100 µM | TGI (COLO 205 colon): > 100 µM | TGI (CCRF-CEM leukemia): > 100 µM | TGI (UACC-257 melanoma): > 100 µM | TGI (MALME-3M melanoma): > 100 µM | TGI (IGROV1 ovarian): > 100 µM | TGI (EKVX NSCLC): > 100 µM | TGI (SK-OV-3 ovarian): > 100 µM | TGI (KM12 colon): > 100 µM | TGI (NCI-H460 lung): > 100 µM | TGI (SK-MEL-2 melanoma): > 100 µM | TGI (ACHN renal): > 100 µM | TGI (T-47D breast): > 100 µM | TGI (NCI-H522 lung): > 100 µM | TGI (SK-MEL-5 melanoma): > 100 µM | TGI (A549 NSCLC): > 100 µM | TGI (BT-549 breast): > 100 µM | TGI (A498 renal): > 100 µM | TGI (CAKI-1 renal): 45 µM | TGI (NCI-H226 lung): > 100 µM | TGI (SF-539 CNS): > 100 µM | TGI (RXF 393 renal): > 100 µM | TGI (MOLT-4 leukemia): > 100 µM | TGI (SF-268 CNS): > 100 µM | TGI (SF-295 CNS): > 100 µM | TGI (PC-3 prostate): > 100 µM | TGI (OVCAR-8 ovarian): > 100 µM | TGI (SK-MEL-28 melanoma): > 100 µM | TGI (OVCAR-4 ovarian): > 100 µM | TGI (786-0 renal): > 100 µM | TGI (HS 578T breast): > 100 µM | TGI (HCC-2998 colon): > 100 µM | TGI (NCI/ADR-RES ovarian): > 100 µM | TGI (MDA-MB-435): > 100 µM | TGI (UO-31 renal): > 100 µM | TGI (MCF7 breast): > 100 µM | TGI (HCT-15 colon): > 100 µM | TGI (OVCAR-5 ovarian): > 100 µM | TGI (UACC-62 melanoma): > 100 µM | TGI (SN12C renal): > 100 µM | TGI (SW-620 colon): > 100 µM | TGI (DU-145 prostate): > 100 µM | TGI (U251 CNS): > 100 µM | TGI (LOX IMVI melanoma): > 100 µM | TGI (NCI-H23 lung): > 100 µM | TGI (MDA-MB-231 breast): > 100 µM | TGI (HT29 colon): > 100 µM | TGI (SR leukemia): > 100 µM | TGI (MDA-N): > 100 µM | TGI (SNB-19 CNS): > 100 µM | TGI (HCT-116 colon): > 100 µM | TGI (TK-10 renal): > 100 µM | TGI (RPMI-8226 leukemia): > 100 µM | TGI (HL-60(TB) leukemia): > 100 µM

Cc1ccc(S(=O)(=O)SCc2ccccc2)cc1
TGI (M19-MEL melanoma): > 77.4 µM | TGI (HOP-92 NSCLC): 60.9 µM | TGI (HOP-62 NSCLC): > 79.3 µM | TGI (M14 melanoma): 39.7 µM | TGI (SNB-75 CNS): > 84.2 µM | TGI (SNB-78 CNS): 30 µM | TGI (K-562 leukemia): 27.3 µM | TGI (COLO 205 colon): 27.4 µM | TGI (CCRF-CEM leukemia): 7.25 µM | TGI (DMS 273 small cell lung): > 69.5 µM | TGI (OVCAR-3 ovarian): 45.5 µM | TGI (UACC-257 melanoma): > 94.2 µM | TGI (MALME-3M melanoma): 81.5 µM | TGI (IGROV1 ovarian): > 100 µM | TGI (EKVX NSCLC): 97.2 µM | TGI (SK-OV-3 ovarian): > 95.9 µM | TGI (HOP-18 NSCLC): > 100 µM | TGI (KM12 colon): 57.6 µM | TGI (NCI-H460 lung): > 69.5 µM | TGI (SK-MEL-2 melanoma): > 75.6 µM | TGI (ACHN renal): > 100 µM | TGI (NCI-H522 lung): 20.9 µM | TGI (SK-MEL-5 melanoma): 54.5 µM | TGI (A549 NSCLC): > 100 µM | TGI (A498 renal): > 100 µM | TGI (CAKI-1 renal): > 75.2 µM | TGI (NCI-H226 lung): 40.9 µM | TGI (SF-539 CNS): 45.7 µM | TGI (RXF 393 renal): 69.2 µM | TGI (MOLT-4 leukemia): 6.22 µM | TGI (SF-268 CNS): > 85.7 µM | TGI (SF-295 CNS): > 89.7 µM | TGI (OVCAR-8 ovarian): 33.4 µM | TGI (SK-MEL-28 melanoma): > 100 µM | TGI (OVCAR-4 ovarian): 31.4 µM | TGI (786-0 renal): 31.4 µM | TGI (XF 498 CNS): 95.2 µM | TGI (HCC-2998 colon): 57.4 µM | TGI (UO-31 renal): > 100 µM | TGI (HCT-15 colon): 28.6 µM | TGI (LXFL 529 NSCLC): 47.4 µM | TGI (OVCAR-5 ovarian): > 100 µM | TGI (DLD-1 colon): 21.7 µM | TGI (UACC-62 melanoma): > 67.9 µM | TGI (SN12C renal): 50.4 µM | TGI (SW-620 colon): 14.7 µM | TGI (U251 CNS): 58.8 µM | TGI (LOX IMVI melanoma): 37.2 µM | TGI (NCI-H23 lung): 36.2 µM | TGI (HT29 colon): 47.1 µM | TGI (DMS 114 small cell lung): 47.8 µM | TGI (SR leukemia): 62.7 µM | TGI (KM20L2 colon): 43.9 µM | TGI (SNB-19 CNS): > 91.7 µM | TGI (HCT-116 colon): 26.4 µM | TGI (TK-10 renal): > 100 µM | TGI (RPMI-8226 leukemia): 33.5 µM | TGI (HL-60(TB) leukemia): 5.76 µM

O=C(Sc1sc(=S)sc1SC(=O)c1ccccc1)c1ccccc1
TGI (M19-MEL melanoma): 51 µM | TGI (HOP-92 NSCLC): > 100 µM | TGI (HOP-62 NSCLC): 72.4 µM | TGI (M14 melanoma): > 100 µM | TGI (SNB-75 CNS): 78.3 µM | TGI (SNB-78 CNS): > 100 µM | TGI (K-562 leukemia): > 100 µM | TGI (COLO 205 colon): > 100 µM | TGI (CCRF-CEM leukemia): > 100 µM | TGI (DMS 273 small cell lung): > 100 µM | TGI (OVCAR-3 ovarian): > 100 µM | TGI (UACC-257 melanoma): > 100 µM | TGI (MALME-3M melanoma): > 100 µM | TGI (IGROV1 ovarian): > 100 µM | TGI (EKVX NSCLC): > 100 µM | TGI (SK-OV-3 ovarian): 41.4 µM | TGI (HOP-18 NSCLC): > 100 µM | TGI (KM12 colon): > 100 µM | TGI (SK-MEL-2 melanoma): > 100 µM | TGI (ACHN renal): > 100 µM | TGI (NCI-H522 lung): > 100 µM | TGI (SK-MEL-5 melanoma): > 100 µM | TGI (A549 NSCLC): 70.6 µM | TGI (A498 renal): 78 µM | TGI (CAKI-1 renal): > 100 µM | TGI (SF-539 CNS): > 100 µM | TGI (RXF 393 renal): > 100 µM | TGI (MOLT-4 leukemia): > 100 µM | TGI (SF-268 CNS): > 100 µM | TGI (SF-295 CNS): > 100 µM | TGI (OVCAR-8 ovarian): > 100 µM | TGI (SK-MEL-28 melanoma): > 100 µM | TGI (OVCAR-4 ovarian): > 100 µM | TGI (786-0 renal): > 100 µM | TGI (XF 498 CNS): > 100 µM | TGI (HCC-2998 colon): > 100 µM | TGI (HCT-15 colon): > 100 µM | TGI (LXFL 529 NSCLC): > 100 µM | TGI (OVCAR-5 ovarian): > 100 µM | TGI (UACC-62 melanoma): 53 µM | TGI (SN12C renal): > 100 µM | TGI (SW-620 colon): > 100 µM | TGI (U251 CNS): 80.7 µM | TGI (NCI-H23 lung): > 100 µM | TGI (HT29 colon): > 100 µM | TGI (DMS 114 small cell lung): > 100 µM | TGI (KM20L2 colon): > 100 µM | TGI (SNB-19 CNS): > 100 µM | TGI (HCT-116 colon): > 100 µM | TGI (TK-10 renal): > 100 µM | TGI (RPMI-8226 leukemia): > 100 µM | TGI (HL-60(TB) leukemia): > 100 µM
